The source made the active and inactive calls. The rule behind the calls is not given here.
Experiments:
[1] = target: Stromelysin-1 (Homo sapiens, UniProt P08254); assay: Inhibition of MMP3
[2] = target: T1, Caspase-1 (Homo sapiens, UniProt P29466); assay: (§1) Inhibition of caspase 1
T1 sequence (P29466 whole entry): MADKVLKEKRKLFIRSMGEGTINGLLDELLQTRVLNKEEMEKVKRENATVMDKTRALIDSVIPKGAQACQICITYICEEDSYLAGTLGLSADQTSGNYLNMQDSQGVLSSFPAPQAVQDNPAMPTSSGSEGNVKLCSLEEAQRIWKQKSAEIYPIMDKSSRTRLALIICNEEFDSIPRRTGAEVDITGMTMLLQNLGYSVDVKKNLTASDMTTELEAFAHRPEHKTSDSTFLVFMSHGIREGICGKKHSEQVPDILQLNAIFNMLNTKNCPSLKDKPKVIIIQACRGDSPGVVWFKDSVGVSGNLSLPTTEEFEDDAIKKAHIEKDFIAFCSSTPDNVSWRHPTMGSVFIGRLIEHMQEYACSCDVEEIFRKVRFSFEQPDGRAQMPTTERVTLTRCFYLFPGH

[3] = target: T2, Caspase-1 (Homo sapiens) (UniProt P29466); assay: as §1
T2 sequence (whole entry): T1 sequence (P29466 whole entry)

CC(C)C[C@H]1C[C@H]([C@@H](O)CC(=O)Cc2ccccc2)C(=O)N1 [BERKELEYAMIDE A]
IC50 [1]: 330 nM
IC50 [2]: 330 nM

CC(=O)OC(c1ccccc1)c1cc(=O)c(C(=O)NC(=O)CC(C)C)co1 (stereo not drawn)
Activity [1]: Active
Activity [3]: Active

CC(C)CC1(O)NC(=O)C2(OC(Cc3ccccc3)=CC2=O)C1O (stereo not drawn) [BERKELEYAMIDE D]
IC50 [1]: 610 nM
IC50 [2]: 610 nM

CC(=O)OC(c1ccccc1)c1cc(=O)c(C(=O)NC(=O)CC(C)C)cn1CCO (stereo not drawn)
Activity [1]: Active
Activity [3]: Active

Reference: ChEMBL document CHEMBL1149876, “The berkeleyamides, amides from the acid lake fungus Penicillum rubrum” (J Nat Prod, 2008)
